Legend:
SIK3 = SIK3 (Homo sapiens, UniProt Q9Y2K2); test: Kinase screen; format: biochemical
Text: (§1) With verapamil used as a positive control.
(§2) V. Distribution coefficient (LogD7.4)

BRSK2 = BRSK2 (Homo sapiens, UniProt Q8IWQ3); test: Kinase screen; format: biochemical
Text: as §1, §2

p38b MAPK = p38b MAPK (Homo sapiens, UniProt Q15759); test: Kinase screen; format: biochemical
Text: as §1, §2

MAP4K3 = MAP4K3 (Homo sapiens, UniProt Q8IVH8); test: Kinase screen; format: biochemical
Text: as §1, §2

PKCa = PKCa (Homo sapiens, UniProt P17252); test: Kinase screen; format: biochemical
Text: as §1, §2

EPH-B3 = EPH-B3 (Homo sapiens, UniProt P54753); test: Kinase screen; format: biochemical
Text: as §1, §2

MNK1 = MNK1 (Homo sapiens, UniProt Q9BUB5); test: Kinase screen; format: biochemical
Text: as §1, §2

EIF2AK3 = EIF2AK3 (Homo sapiens, UniProt Q9NZJ5); test: Kinase screen; format: biochemical
Text: as §1, §2

ERK2 = ERK2 (Homo sapiens, UniProt P28482); test: Kinase screen; format: biochemical
Text: as §1, §2

Aurora B = Aurora B (Homo sapiens, UniProt Q96GD4); test: Kinase screen; format: biochemical
Text: as §1, §2

PRAK = PRAK (Homo sapiens, UniProt Q8IW41); test: Kinase screen; format: biochemical
Text: as §1, §2

MARK2 = MARK2 (Homo sapiens, UniProt Q7KZI7); test: Kinase screen; format: biochemical
Text: as §1, §2

DDR2 = DDR2 (Homo sapiens, UniProt Q16832); test: Kinase screen; format: biochemical
Text: as §1, §2

PIM1 = PIM1 (Homo sapiens, UniProt P11309); test: Kinase screen; format: biochemical
Text: as §1, §2

PDGFRA = PDGFRA (Homo sapiens, UniProt P16234); test: Kinase screen; format: biochemical
Text: as §1, §2

PKCz = PKCz (Homo sapiens, UniProt Q05513); test: Kinase screen; format: biochemical
Text: as §1, §2

p38a MAPK = p38a MAPK (Homo sapiens, UniProt Q16539); test: Kinase screen; format: biochemical
Text: as §1, §2

BRSK1 = BRSK1 (Homo sapiens, UniProt Q8TDC3); test: Kinase screen; format: biochemical
Text: as §1, §2

PIM2 = PIM2 (Homo sapiens, UniProt Q9P1W9); test: Kinase screen; format: biochemical
Text: as §1, §2

IGF-1R = IGF-1R (Homo sapiens, UniProt P08069); test: Kinase screen; format: biochemical
Text: as §1, §2

MSK1 = MSK1 (Homo sapiens, UniProt O75582); test: Kinase screen; format: biochemical
Text: as §1, §2

Lck = Lck (Homo sapiens, UniProt P06239); test: Kinase screen; format: biochemical
Text: as §1, §2

JNK3 = JNK3 (Homo sapiens, UniProt P53779); test: Kinase screen; format: biochemical
Text: as §1, §2

PKCγ = PKCγ (Homo sapiens, UniProt P05129); test: Kinase screen; format: biochemical
Text: as §1, §2

IRAK4 = IRAK4 (Homo sapiens, UniProt Q9NWZ3); test: Kinase screen; format: biochemical
Text: as §1, §2

MELK = MELK (Homo sapiens, UniProt Q14680); test: Kinase screen; format: biochemical
Text: as §1, §2

CAMK1 = CAMK1 (Homo sapiens, UniProt Q14012); test: Kinase screen; format: biochemical
Text: as §1, §2

BRK = BRK (Homo sapiens, UniProt Q13882); test: Kinase screen; format: biochemical
Text: as §1, §2

PKBb = PKBb (Homo sapiens, UniProt P31751); test: Kinase screen; format: biochemical
Text: as §1, §2

PAK5 = PAK5 (Homo sapiens, UniProt Q9P286); test: Kinase screen; format: biochemical
Text: as §1, §2

CAMKKb = CAMKKb (Homo sapiens, UniProt Q96RR4); test: Kinase screen; format: biochemical
Text: as §1, §2

TrkA = TrkA (Homo sapiens, UniProt P04629); test: Kinase screen; format: biochemical
Text: as §1, §2

ERK8 = ERK8 (Homo sapiens, UniProt Q8TD08); test: Kinase screen; format: biochemical
Text: as §1, §2

MAP4K5 = MAP4K5 (Homo sapiens, UniProt Q9Y4K4); test: Kinase screen; format: biochemical
Text: as §1, §2

MST4 = MST4 (Homo sapiens, UniProt Q9P289); test: Kinase screen; format: biochemical
Text: as §1, §2

PKA = PKA (Homo sapiens, UniProt P17612); test: Kinase screen; format: biochemical
Text: as §1, §2

IR = IR (Homo sapiens, UniProt P06213); test: Kinase screen; format: biochemical
Text: as §1, §2

MAPKAP-K3 = MAPKAP-K3 (Homo sapiens, UniProt Q16644); test: Kinase screen; format: biochemical
Text: as §1, §2

PHK = PHK (Homo sapiens, UniProt Q16816); test: Kinase screen; format: biochemical
Text: as §1, §2

NUAK1 = NUAK1 (Homo sapiens, UniProt O60285); test: Kinase screen; format: biochemical
Text: as §1, §2

MARK3 = MARK3 (Homo sapiens, UniProt P27448); test: Kinase screen; format: biochemical
Text: as §1, §2

EPH-A4 = EPH-A4 (Homo sapiens, UniProt P54764); test: Kinase screen; format: biochemical
Text: as §1, §2

PDK1 = PDK1 (Homo sapiens, UniProt O15530); test: Kinase screen; format: biochemical
Text: as §1, §2

CK1δ = CK1δ (Homo sapiens, UniProt P48730); test: Kinase screen; format: biochemical
[1] = test system: P. falciparum clinical field isolates from The Gambia; test: Parasite reduction rate (PRR) assay with clinical isolates; format: cell-based

PDGFRA, sequence (P16234 24-1089): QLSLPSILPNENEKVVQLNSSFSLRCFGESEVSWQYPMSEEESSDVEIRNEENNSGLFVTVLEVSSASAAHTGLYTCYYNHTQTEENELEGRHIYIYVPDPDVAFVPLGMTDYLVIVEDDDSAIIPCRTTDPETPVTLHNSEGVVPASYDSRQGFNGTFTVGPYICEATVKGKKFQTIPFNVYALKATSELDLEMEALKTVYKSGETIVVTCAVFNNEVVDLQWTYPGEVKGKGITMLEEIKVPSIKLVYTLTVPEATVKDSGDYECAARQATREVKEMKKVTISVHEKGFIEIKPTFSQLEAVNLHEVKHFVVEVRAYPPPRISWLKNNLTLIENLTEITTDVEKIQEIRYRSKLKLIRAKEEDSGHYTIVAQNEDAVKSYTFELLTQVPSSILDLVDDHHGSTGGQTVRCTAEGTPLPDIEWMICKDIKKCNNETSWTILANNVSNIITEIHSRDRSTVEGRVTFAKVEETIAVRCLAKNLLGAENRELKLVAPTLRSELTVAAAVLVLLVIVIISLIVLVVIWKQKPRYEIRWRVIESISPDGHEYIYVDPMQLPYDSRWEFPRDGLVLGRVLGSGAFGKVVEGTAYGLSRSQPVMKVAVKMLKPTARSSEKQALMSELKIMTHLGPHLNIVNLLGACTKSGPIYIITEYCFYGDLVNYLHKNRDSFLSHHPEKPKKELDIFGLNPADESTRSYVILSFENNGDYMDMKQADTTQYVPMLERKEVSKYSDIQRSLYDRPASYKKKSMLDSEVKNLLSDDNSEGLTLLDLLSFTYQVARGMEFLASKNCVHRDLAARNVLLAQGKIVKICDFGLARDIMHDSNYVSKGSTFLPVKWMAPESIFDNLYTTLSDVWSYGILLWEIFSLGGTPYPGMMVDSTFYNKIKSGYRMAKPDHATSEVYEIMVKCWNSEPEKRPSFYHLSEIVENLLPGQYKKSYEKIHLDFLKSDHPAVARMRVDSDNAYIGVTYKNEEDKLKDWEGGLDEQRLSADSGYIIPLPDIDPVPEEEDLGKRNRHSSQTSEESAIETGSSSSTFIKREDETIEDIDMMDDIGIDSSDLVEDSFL
MARK3, sequence (P27448 whole entry): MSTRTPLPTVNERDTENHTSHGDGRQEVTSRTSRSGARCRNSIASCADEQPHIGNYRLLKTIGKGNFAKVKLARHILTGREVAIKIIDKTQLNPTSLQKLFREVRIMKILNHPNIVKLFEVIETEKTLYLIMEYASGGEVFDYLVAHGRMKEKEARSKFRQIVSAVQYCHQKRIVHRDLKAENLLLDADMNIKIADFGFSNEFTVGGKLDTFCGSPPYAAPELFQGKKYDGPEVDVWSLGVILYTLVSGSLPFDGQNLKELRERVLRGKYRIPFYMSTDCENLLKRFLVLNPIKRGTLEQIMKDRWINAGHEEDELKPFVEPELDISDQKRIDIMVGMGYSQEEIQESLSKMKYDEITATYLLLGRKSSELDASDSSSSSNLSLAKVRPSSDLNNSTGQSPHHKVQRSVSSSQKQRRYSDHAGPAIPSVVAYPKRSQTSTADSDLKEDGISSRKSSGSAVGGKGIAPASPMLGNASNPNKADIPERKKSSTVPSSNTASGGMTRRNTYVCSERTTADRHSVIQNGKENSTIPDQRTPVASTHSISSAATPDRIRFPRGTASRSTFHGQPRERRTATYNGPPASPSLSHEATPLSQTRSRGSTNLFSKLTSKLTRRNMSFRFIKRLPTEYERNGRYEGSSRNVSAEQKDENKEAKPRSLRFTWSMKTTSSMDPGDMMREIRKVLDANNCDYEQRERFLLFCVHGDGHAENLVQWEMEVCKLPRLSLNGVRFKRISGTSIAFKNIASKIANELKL
PHK, sequence (Q16816 whole entry): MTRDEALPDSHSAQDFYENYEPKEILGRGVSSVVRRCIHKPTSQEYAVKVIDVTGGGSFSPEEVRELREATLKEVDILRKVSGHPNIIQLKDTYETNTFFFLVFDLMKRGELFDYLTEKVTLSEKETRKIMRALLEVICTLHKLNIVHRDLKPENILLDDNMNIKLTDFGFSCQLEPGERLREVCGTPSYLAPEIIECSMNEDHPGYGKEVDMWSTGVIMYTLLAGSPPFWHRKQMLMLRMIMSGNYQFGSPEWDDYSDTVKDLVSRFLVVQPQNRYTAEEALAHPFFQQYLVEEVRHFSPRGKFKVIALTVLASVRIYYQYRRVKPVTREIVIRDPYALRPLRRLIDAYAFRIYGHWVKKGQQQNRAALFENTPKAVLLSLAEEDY
SIK3, sequence (Q9Y2K2 whole entry): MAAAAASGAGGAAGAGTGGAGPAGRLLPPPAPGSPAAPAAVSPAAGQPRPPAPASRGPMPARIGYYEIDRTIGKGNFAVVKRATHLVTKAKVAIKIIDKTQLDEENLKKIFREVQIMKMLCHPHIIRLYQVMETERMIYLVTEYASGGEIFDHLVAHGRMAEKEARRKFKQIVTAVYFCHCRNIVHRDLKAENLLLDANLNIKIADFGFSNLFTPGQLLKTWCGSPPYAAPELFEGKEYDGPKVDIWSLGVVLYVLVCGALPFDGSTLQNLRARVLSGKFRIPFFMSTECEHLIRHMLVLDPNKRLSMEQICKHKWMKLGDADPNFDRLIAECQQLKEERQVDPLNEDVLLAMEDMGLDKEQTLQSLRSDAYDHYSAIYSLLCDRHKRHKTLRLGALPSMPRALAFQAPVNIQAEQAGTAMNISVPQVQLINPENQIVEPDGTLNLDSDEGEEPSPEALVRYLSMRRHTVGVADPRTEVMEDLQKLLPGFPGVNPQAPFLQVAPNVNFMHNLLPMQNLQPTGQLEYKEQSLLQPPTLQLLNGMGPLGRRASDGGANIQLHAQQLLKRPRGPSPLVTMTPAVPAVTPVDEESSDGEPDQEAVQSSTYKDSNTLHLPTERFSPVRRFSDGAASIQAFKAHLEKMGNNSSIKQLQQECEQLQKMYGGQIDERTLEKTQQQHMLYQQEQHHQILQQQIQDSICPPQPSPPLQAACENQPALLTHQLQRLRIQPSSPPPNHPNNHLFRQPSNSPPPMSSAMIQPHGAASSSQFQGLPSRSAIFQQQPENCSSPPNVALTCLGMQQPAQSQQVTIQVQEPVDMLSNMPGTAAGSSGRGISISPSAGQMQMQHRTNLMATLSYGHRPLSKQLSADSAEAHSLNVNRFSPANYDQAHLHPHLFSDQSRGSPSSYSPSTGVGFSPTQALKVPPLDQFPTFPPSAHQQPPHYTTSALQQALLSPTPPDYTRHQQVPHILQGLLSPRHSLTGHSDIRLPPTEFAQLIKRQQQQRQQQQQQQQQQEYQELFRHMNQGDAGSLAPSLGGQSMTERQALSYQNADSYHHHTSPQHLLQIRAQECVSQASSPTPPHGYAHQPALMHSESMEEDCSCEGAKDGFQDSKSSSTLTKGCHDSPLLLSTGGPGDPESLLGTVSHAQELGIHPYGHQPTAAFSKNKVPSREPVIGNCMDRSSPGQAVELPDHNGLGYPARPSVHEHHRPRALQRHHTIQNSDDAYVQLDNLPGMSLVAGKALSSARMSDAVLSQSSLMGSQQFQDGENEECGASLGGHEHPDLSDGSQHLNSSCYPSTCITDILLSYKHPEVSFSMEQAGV
Aurora B, sequence (Q96GD4 whole entry): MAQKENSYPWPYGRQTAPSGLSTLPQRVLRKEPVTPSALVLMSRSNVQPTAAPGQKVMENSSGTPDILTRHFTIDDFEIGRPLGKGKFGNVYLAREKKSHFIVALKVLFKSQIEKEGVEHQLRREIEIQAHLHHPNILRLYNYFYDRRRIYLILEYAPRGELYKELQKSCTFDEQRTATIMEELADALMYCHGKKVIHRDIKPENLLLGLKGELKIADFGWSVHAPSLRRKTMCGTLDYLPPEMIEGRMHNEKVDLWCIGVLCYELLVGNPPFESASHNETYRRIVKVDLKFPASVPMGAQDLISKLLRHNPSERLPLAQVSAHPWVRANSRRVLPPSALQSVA
IRAK4, sequence (Q9NWZ3 whole entry): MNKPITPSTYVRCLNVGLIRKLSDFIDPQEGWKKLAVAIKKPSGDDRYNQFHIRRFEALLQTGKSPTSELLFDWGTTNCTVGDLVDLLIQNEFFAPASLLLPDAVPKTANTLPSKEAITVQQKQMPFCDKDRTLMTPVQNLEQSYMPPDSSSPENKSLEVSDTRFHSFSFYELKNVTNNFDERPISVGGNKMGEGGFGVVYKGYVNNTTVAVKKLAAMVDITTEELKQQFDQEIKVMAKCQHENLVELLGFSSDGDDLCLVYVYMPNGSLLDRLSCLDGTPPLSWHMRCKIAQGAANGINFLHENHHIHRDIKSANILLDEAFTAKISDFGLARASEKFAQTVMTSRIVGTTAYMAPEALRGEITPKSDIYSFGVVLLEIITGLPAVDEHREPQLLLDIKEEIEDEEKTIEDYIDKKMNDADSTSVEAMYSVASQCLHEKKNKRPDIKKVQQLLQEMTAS

In the case of CCN(CC)Cc1ccc(OC)c(-c2cc3c(-c4ccc(C(=O)O)c(C(C)C)c4)ccnc3[nH]2)c1 [analogue 1, 4-(2-(5-((Diethylamino)methyl)-2-methoxyphenyl)-1H-pyrrolo[2,3-b]pyridin-4-yl)-2-isopropylbenzoic Acid], the activity at 1 µM (SIK3) is reported as 71%, the activity at 1 µM (BRSK2) is reported as 74% and the activity at 1 µM (p38b MAPK) is reported as 112%. The activity at 1 µM (MAP4K3) was 1%, the activity at 1 µM (PKCa) was 64% and the activity at 1 µM (EPH-B3) was 108%. For the same compound, the activity at 1 µM (MNK1) was 0%, the activity at 1 µM (EIF2AK3) was 100% and the activity at 1 µM (ERK2) was 115%. It also gave an activity at 1 µM (Aurora B) of 59%, an activity at 1 µM (PRAK) of 88% and an activity at 1 µM (MARK2) of 34%. For the same compound, the activity at 1 µM (DDR2) was 21%, the activity at 1 µM (PIM1) was 107% and the activity at 1 µM (PDGFRA) was 133%. For the same compound, the activity at 1 µM (PKCz) was 121%, the activity at 1 µM (p38a MAPK) was 89% and the activity at 1 µM (BRSK1) was 66%. It also gave an activity at 1 µM (PIM2) of 93%, an activity at 1 µM (IGF-1R) of 51% and an activity at 1 µM (MSK1) of 99%. For the same compound, the activity at 1 µM (Lck) was 39%, the activity at 1 µM (JNK3) was 52% and the activity at 1 µM (PKCγ) was 114%. The activity at 1 µM (IRAK4) was 24%, the activity at 1 µM (MELK) was 85% and the activity at 1 µM (CAMK1) was 86%. It also gave an activity at 1 µM (BRK) of 33%, an activity at 1 µM (PKBb) of 96% and an activity at 1 µM (PAK5) of 75%. For the same compound, the activity at 1 µM (CAMKKb) was 2%, the activity at 1 µM (TrkA) was 87% and the activity at 1 µM (ERK8) was 55%. It also gave an activity at 1 µM (MAP4K5) of 14%, an activity at 1 µM (MST4) of 59% and an activity at 1 µM (PKA) of 103%. It also gave an activity at 1 µM (IR) of 77%, an activity at 1 µM (MAPKAP-K3) of 110% and an activity at 1 µM (PHK) of 10%. It also gave an activity at 1 µM (NUAK1) of 18%, an activity at 1 µM (MARK3) of 34% and an activity at 1 µM (EPH-A4) of 83%. For the same compound, the activity at 1 µM (PDK1) was 111%, the activity at 1 µM (CK1δ) was 91% and the “susceptibility of clinical isolates (PRR)” value [1] was “total susceptibility”.
